These results are taken from patent publication US20040126359A1, “Hedgehog” (priority 2001, published 2004).

In assay [1] the test system is CD4+ T-cells. The assay is described as follows: Taqman real time PCR of Shh, Ihh, HIP and Ptc expression in CD4+ T-cells (FIGS. 14, 15, 17). The class given is cell-based. On the procedure: Expression in medium, in the presence of 50 ng/ml IL-10 and in the presence of 50 ng/ml IFN-γ was compared to expression in resting CD4+ T-cells;
Similar experiments were used to study the expression of Shh (FIG. 4) and Ptc (FIG. 5) in T-cells and the expression of components of the Hh signalling pathway in lymphoid tissues (FIG. 6). FIG. 14 illustrates the results of an RT-PCR analysis of Shh, Ihh, Hip and Ptc expression. Activation of T-cells induced a sustained and marked (approximately 80-fold) increase in Shh mRNA, peaking at 44 and 72 hours. It lead to a downregulation of Ptc.

For assay [2], the system named is mouse spleen cells and purified CD4+ T-cells. The assay is described as follows: Survival in culture by Trypan blue staining. The class given is cell-based. Conditions: no activation; Shh 10 and 100 ng/ml; 4 day time frame. Here is the method:
Survival was measured by Trypan blue staining of dead and alive cells in culture;
Cells cultured in medium without Shh were used as controls;

Another assay deals with Gli2-/Gli3- mice cells. The assay is described as follows: Cell cycle / survival analysis in Gli2-/Gli3- mice cells. It counts as cell-based, mouse. Conditions: Shh 10 and 500 ng/ml. On the procedure:
Cell survival was measured in Gli2^−/Gli3^− mice cells (i.e. from mice in which one allele each of Gli2 and Gli3 were deleted from the genome) in the presence (10 ng/ml and 500 ng/ml) and absence of Shh;
(§1) The CD4^+ T-cells were cultured as above in 48-well plates with and without addition of exogenous Shh or 5E1. At 72 hr post-activation, the cells were spun at 13,000 rpm for 7 min then re-suspended in citrate buffer. Cell cycle analysis was carried out using the Vindelov method (Vindelov et al, 1990). Briefly, the cells were trypsinized (Sigma) to expose the nucleus before being stained with propidium iodide (Sigma). Cell cycle analysis was then performed on an Epics© XL flow cytometer (Beckman Coulter UK Ltd, Bucks, UK). The machine counted 30,000 nuclei in each sample and the software analysed the % of cells in each stage of the cell cycle sub-G1, G1, S phase and G2/M. From these figures, the % of live cells (G1, S and G2/M) was calculated, and from this, the % of live cells in G1 and S/G2 phases.

For a further assay, the system named is human CD4 T-cells. The assay is described as follows: Proliferation of human CD4 T-cells cultured with Shh N-terminal active peptide (3H thymidine). It counts as cell-based. Conditions: activated CD4+ T-cells; dose dependent.
Assay [3] deals with CD4+ T-cells. The assay is described as follows: Cell cycle analysis (propidium iodide, Vindelov method). It counts as cell-based, mouse. Here is the method:
CD4^+ T-cells were cultured in RPMI 1640 medium (Life Technologies, Paisley, UK) supplemented with 10% FCS (Life Technologies), 2 mM L-glutamine, (Sigma, Dorset, UK), 20 μg/ml penicillin/streptomycin (Life Technologies) and […] 2-mercaptoethanol (Sigma). Anti-CD3/28 antibody activation was carried out at 2 concentrations, namely ‘sub-optimal’ (anti-CD3 at 0.25 μg/ml and anti-CD28 at 0.1 μg/ml) and ‘optimal’ (anti-CD3 at 1 μg/ml and anti-CD28 at 5 μg/ml). Tissue culture plates (Corning Inc., NY, USA) were coated with the anti-CD3 antibody for 90 min at 37° C. prior to addition of the CD4^+ T-cells. Recombinant mouse Shh amino-terminal peptide (R&D systems Europe Ltd, Abingdon, UK) was added into cultures at a concentration of 500 ng/ml. 5E1 antibody was used at either 20 μg/ml or 50 μg/ml and the isotype control was used at 20 μg/ml. The concentrations used were based on results of dose response curves (data not shown).
as §1
The effect of Shh on CD4^+ T-cell proliferation was investigated further using cell cycle analysis to allow us to examine if Shh affected cell survival or promoted entry in the S/G2 proliferative phase of the cell cycle. As with the ^3H-TdR incorporation studies, this analysis was carried out on resting CD4^+ T-cells and those optimally and sub-optimally activated. Exogenous Shh was added at the time of (t=0) or 24 hr before (t=−24 hr) anti-CD3/28 antibody activation and the T-cells were analysed 72 hr later. In the case of resting CD4^+ T-cells, Shh peptide was added at t=0, and the cells were analysed at 24 hr, 48 hr and 72 hrs. The % cells distributed in sub-G1, G1, S and G2 phases of the cell cycle was analysed, and from this the % live cells in G1 and S/G2 phases was calculated.

Setting [4] is: Shh added to activated T-cell cultures.
The mark [5] stands for this setting: optimally activated, Shh 24 hr prior to activation.
Setting [6] is: sub-optimally activated, Shh peptide at t=0.

As to “Shh peptide: Recombinant mouse Shh amino-terminal peptide (R&D systems); biologically active N-terminal Sonic hedgehog fragment”, in the assay with CD4+ T-cells [1] (setting [4]), the Hip expression entry is given as “up-regulated” and the Ihh expression entry was “down-”. Moreover, the “effect on Ptc downregulation” value with CD4+ T-cells [1] (activated T-cells, Shh addition) is reported as “does not appear to affect”. For the same substance, the “Shh mRNA expression” value with CD4+ T-cells [1] (activated T-cells, Shh addition, 24 hours, 40 cycles of PCR (limit of assay)) is “no signal is detected”. Moreover, in assay [2], the survival in culture result is “enhances their survival”. Moreover, the “effect on survival / apoptosis (live cells, sub-G1 pool)” value with Gli2-/Gli3- mice cells is “promotes apoptosis”. The “incorporation of 3H-thymidine” value in the assay on human CD4 T-cells is recorded as “significantly enhances”. Also, the “effect on cell cycle progression, direct addition on its own” value in the assay with CD4+ T-cells [3] (FIG. 13, Shh 10 and 500 ng/ml, relative to the anti-Shh effect) was “slight effect in the opposite direction”. In the assay on CD4+ T-cells [3] (optimally activated (anti-CD3 1 μg/ml, anti-CD28 5 μg/ml), Shh at t=0, 72 hr), the “% increase in live cells in S/G2 phase, range” value is recorded as 9%-144%. In addition, in the assay with CD4+ T-cells [3] (setting [5]), the “% of live cells with and without Shh” value is given as “very similar”; the “increase in cells in S/G2 phase, range” value was 53.1%-97.1%. Besides, in the assay with CD4+ T-cells [3] (optimally activated, Shh 24 hr prior to activation, n=3, p<0.01), the “increase in cells in S/G2 phase, mean” value is 71.5%. The “% of live cells with and without Shh” value in the assay with CD4+ T-cells [3] (optimally activated, Shh at t=0) is “very similar”. In addition, in the assay with CD4+ T-cells [3] (optimally activated, Shh at t=0, n=3, not statistically significant), the “% increase in live cells in S/G2 phase, mean” value turned out to be 63.7%. In the assay on CD4+ T-cells [3] (resting CD4+ T-cells, Shh 500 ng/ml), the “difference in % of cells in S/G2 phase” value is recorded as “negligible”. Besides, the “effect on cell survival” value in the assay on CD4+ T-cells [3] (resting CD4+ T-cells, Shh 500 ng/ml, 24, 48, 72 hr) was “minimal effects”. Besides, the “increase in % of live cells entering S/G2 phase, range” value in the assay on CD4+ T-cells [3] (sub-optimally activated, Shh peptide 24 hr prior to activation) is reported as 34.6%-110%. Moreover, in the assay with CD4+ T-cells [3] (sub-optimally activated, Shh peptide 24 hr prior to activation, n=3, p<0.03), the “increase in % of live cells entering S/G2 phase, mean” value came to 61.5%. In the assay on CD4+ T-cells [3] (sub-optimally activated, Shh peptide 24 hr prior to activation, p<0.02), the “% of live CD4+ T-cells” value is “increase”. Besides, in the assay on CD4+ T-cells [3] (setting [6]), the “% increase in live cells in S/G2 phase, range” value is on record as 27.8%-77.8%; the “% live cells with and without Shh” value is reported as “similar”. In the assay with CD4+ T-cells [3] (sub-optimally activated, Shh peptide at t=0, n=3, p<0.02), the “% increase in live cells in S/G2 phase, mean” value turned out to be 55.8%.
